{
  "source": "paper PMC10904736",
  "about": "“A c-di-GMP signaling module controls responses to iron in Pseudomonas aeruginosa” (Nature Communications, 2024)",
  "molecular_target": "T1, ImcA (PA1851) (Pseudomonas aeruginosa, UniProt Q9I2P4)",
  "T1 construct": "full-length membrane protein (6TM L47-E231, GGDEF R241-A393), expressed in E. coli BL21(DE3), DDM-solubilised, Strep-Tactin purified, homodimer",
  "T1 sequence (Q9I2P4 entry or part of it)": "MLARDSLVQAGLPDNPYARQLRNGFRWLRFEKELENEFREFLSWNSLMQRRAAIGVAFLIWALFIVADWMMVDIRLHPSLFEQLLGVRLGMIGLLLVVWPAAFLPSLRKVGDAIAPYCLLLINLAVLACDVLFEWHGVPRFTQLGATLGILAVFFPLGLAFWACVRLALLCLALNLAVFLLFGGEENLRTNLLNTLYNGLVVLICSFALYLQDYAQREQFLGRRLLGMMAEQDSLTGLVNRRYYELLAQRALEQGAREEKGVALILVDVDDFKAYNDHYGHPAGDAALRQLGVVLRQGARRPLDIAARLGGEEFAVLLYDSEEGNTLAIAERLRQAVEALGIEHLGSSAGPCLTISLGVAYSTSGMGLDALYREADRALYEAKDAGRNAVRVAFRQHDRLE",
  "assay": "HPLC of c-di-GMP formation",
  "assay_type": "biochemical",
  "conditions": "200 µM GTP; 50 mM Tris-HCl pH 8.0, 150 mM NaCl, 0.025% DDM; 37 °C, 2 h; without IsmP",
  "data": [
    {"smiles": "Nc1nc2c(ncn2[C@@H]2O[C@H](COP(=O)(O)OP(=O)(O)OP(=O)(O)O)[C@@H](O)[C@H]2O)c(=O)[nH]1", "note": "[GTP]", "values": [
      {"measurement": "HPLC of c-di-GMP formation", "result": "GTP was absolutely converted to c-di-GMP when GTP was incubated with ImcA alone"}
    ]}
  ]
}
